Publication PMC10120312 (Cell Insight, 2022)
pEC50: −log10 of the molar value.

Assays:
[1] = test system: EV-A71; assay: Viral binding assay; format: cell-based; conditions: qRT-PCR; PTC-209HBr 3.2 μM, enviroxime 0.32 μM, pirodavir 0.64 μM; MOI 30
[2] = test system: EV-A71; assay: Viral entry assay; format: cell-based; conditions: qRT-PCR; PTC-209HBr 3.2 μM, enviroxime 0.32 μM, pirodavir 0.64 μM; MOI 30
[3] = test system: EV-A71; assay: CPE assay against EV-A71 in RD cells; format: cell-based, Enterovirus 71 (EV-A71); conditions: Enterovirus A, EVA71, RD, read-out: EC50 against EV-A71
[4] = target: VP1 and hSCARB2 (Human enterovirus 71, UniProt Q66478); assay: IF assay of colocalization between VP1 and hSCARB2; format: cell-based; conditions: RD cells, vs untreated cells
[5] = target: EV-A71 VP1 (Human enterovirus 71, UniProt Q66478); format: binding; conditions: MST, 500 nM VP1-EGFP
Chain of EV-A71 VP1 (Q66478 566-862): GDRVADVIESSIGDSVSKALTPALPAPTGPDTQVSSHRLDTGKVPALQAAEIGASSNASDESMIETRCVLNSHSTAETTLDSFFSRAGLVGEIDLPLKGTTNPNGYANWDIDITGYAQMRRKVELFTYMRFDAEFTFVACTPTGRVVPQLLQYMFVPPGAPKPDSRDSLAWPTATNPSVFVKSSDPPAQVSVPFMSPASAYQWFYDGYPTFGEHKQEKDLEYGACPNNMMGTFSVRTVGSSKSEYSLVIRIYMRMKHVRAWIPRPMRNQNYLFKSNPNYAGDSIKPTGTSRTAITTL

Chain of VP1 and hSCARB2 (Q66478 324-565): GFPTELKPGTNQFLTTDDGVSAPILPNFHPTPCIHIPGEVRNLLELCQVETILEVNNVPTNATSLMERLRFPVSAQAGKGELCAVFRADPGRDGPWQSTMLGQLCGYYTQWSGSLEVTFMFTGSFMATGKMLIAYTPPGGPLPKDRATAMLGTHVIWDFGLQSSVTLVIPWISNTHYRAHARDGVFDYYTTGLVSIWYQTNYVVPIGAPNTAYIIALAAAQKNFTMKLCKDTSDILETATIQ
Chain of VP1 and hSCARB2 (Q66478 566-862): as the sequence (Q66478 566-862) above
Chain of VP1 and hSCARB2 (Q66478 70-323): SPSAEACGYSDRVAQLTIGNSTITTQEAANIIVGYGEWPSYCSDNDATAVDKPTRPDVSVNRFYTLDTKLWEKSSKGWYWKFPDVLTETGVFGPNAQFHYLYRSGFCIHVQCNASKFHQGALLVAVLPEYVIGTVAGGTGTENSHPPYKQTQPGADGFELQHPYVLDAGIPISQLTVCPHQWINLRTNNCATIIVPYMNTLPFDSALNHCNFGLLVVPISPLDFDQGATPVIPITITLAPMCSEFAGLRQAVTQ
Chain of VP1 and hSCARB2 (Q66478 2-69): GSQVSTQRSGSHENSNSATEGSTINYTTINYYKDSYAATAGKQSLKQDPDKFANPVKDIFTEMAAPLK

| Inhibition of EV-A71 binding (RNA level) [1] | pEC50 [3] | Colocalization between VP1 and hSCARB2 in EV-A71-infected cells [4] | Kd VP1 [5] | Structure (SMILES) | Inhibition of EV-A71 entry (RNA level) [2] |
| --- | --- | --- | --- | --- | --- |
| dramatically inhibit | 5.28 | – | – | CCOC(=O)c1ccc(OCCC2CCN(c3ccc(C)nn3)CC2)cc1 [Pirodavir, pirodavir] | but not entry |
| little inhibited | 6.75 | decreased | low binding affinity | CC(C)S(=O)(=O)n1c(N)nc2ccc(/C(=N/O)c3ccccc3)cc21 [Enviroxime, enviroxime] | little inhibited |
